Here are results for two compounds from ChEMBL document CHEMBL4229379, “Synthesis and structure-activity relationship of novel bisindole amidines active against MDR Gram-positive and Gram-negative bacteria” (Eur J Med Chem, 2018).

By MIC is commonly meant the least concentration at which growth counts as inhibited.

≈ marks a conversion by molar mass, not a printed value.

Holding throughout (assay type): functional
The subject of assay [1] is Klebsiella pneumoniae. Put plainly: Antibacterial activity against new delhi metallo-beta-lactamase-1 harboring Klebsiella pneumoniae ATCC BAA-2146 after 18 hrs by CLSI broth microdilution method.
The subject of assay [2] is Escherichia coli. Put plainly: Antibacterial activity against extended-spectrum beta-lactamase harboring Escherichia coli 13-1 after 18 hrs by CLSI broth microdilution method.
Assay [3] has as its system Escherichia coli. Put plainly: Antibacterial activity against extended-spectrum beta-lactamase harboring Escherichia coli CDC1001728 after 18 hrs by CLSI broth microdilution method.
For assay [4], the system named is Klebsiella pneumoniae. Put plainly: Antibacterial activity against new delhi metallo-beta-lactamase-1 harboring Klebsiella pneumoniae 13-1 after 18 hrs by CLSI broth microdilution method. (In general: In broth dilution the organism is exposed to a series of concentrations in liquid medium.)
Assay [5] concerns Klebsiella pneumoniae. The experiment in a line: Antibacterial activity against carbapenem-resistant Klebsiella pneumoniae 12-11 after 18 hrs by CLSI broth microdilution method.
Assay [6] has as its system Klebsiella pneumoniae. The experiment in a line: Antibacterial activity against carbapenem-resistant Klebsiella pneumoniae 12-12 after 18 hrs by CLSI broth microdilution method.
For assay [7], the system named is Acinetobacter calcoaceticus. The experiment in a line: Antibacterial activity against new delhi metallo-beta-lactamase-1 harboring Acinetobacter calcoaceticus 13-1 after 18 hrs by CLSI broth microdilution method.
The subject of assay [8] is Acinetobacter calcoaceticus. Put plainly: Antibacterial activity against carbapenem-resistant Acinetobacter calcoaceticus 12-6 after 18 hrs by CLSI broth microdilution method.
The subject of another assay is Klebsiella aerogenes. Put plainly: Antibacterial activity against carbapenem-resistant Enterobacter aerogenes 11-4 after 18 hrs by CLSI broth microdilution method.
Assay [9] concerns Enterobacter cloacae. The experiment in a line: Antibacterial activity against new delhi metallo-beta-lactamase-1 harboring Enterobacter cloacae CDC1000654 after 18 hrs by CLSI broth microdilution method.
Assay [10] relates to Enterobacter cloacae. The experiment in a line: Antibacterial activity against new delhi metallo-beta-lactamase-1 harboring Enterobacter cloacae 13-1 after 18 hrs by CLSI broth microdilution method.

Take `CN(C)c1cc(NC(=O)CNC(C)(C)C)c(O)c2c1C[C@H]1C[C@H]3[C@H](N(C)C)C(O)=C(C(N)=O)C(=O)[C@@]3(O)C(O)=C1C2=O` [TIGECYCLINE]: the minimal inhibitory concentration (MIC) in the assay on Klebsiella pneumoniae [1] (ATCC BAA-2146, 18 h) is 8 µg/mL (≈ 13.7 µM); against Escherichia coli [2] (13-1, 18 h), 0.25 µg/mL (≈ 0.427 µM); in the assay with Escherichia coli [3] (CDC1001728, 18 h), 0.5 µg/mL (≈ 0.854 µM); against Klebsiella pneumoniae [4] (13-1, 18 h) it was 0.5 µg/mL (≈ 0.854 µM); with Klebsiella pneumoniae [5] (12-11, 18 h), 1 µg/mL (≈ 1.71 µM); in the assay on Klebsiella pneumoniae [6] (12-12, 18 h), 1 µg/mL (≈ 1.71 µM). The MIC in [7] (13-1, 18 h) is 0.5 µg/mL (≈ 0.854 µM); in assay [8] (12-6, 18 h), 1 µg/mL (≈ 1.71 µM); in the assay on Klebsiella aerogenes (11-4, 18 h) it was 1 µg/mL (≈ 1.71 µM); against Enterobacter cloacae [9] (CDC1000654, 18 h), 8 µg/mL (≈ 13.7 µM); against Enterobacter cloacae [10] (13-1, 18 h) it was 1 µg/mL (≈ 1.71 µM).
Consider COLISTIN, for which the MIC against Klebsiella pneumoniae [1] was 0.5 µg/mL; in the assay on Escherichia coli [2] it was 0.5 µg/mL; against Escherichia coli [3], 0.5 µg/mL; against Klebsiella pneumoniae [4] it was 0.5 µg/mL; against Klebsiella pneumoniae [5] it was 0.5 µg/mL; in the assay with Klebsiella pneumoniae [6] it was 1 µg/mL. Moreover, the MIC (in assay [7]; in assay [8]; with Klebsiella aerogenes; with Enterobacter cloacae [9]; with Enterobacter cloacae [10]) was 0.5 µg/mL each time.
